The record followed here is ChEMBL document CHEMBL5696441 (Nat Chem Biol, 2011).

Usually inhibition stands for the relative decrease from the control value, in per cent.

In series [1] the target is MAP kinase-activated protein kinase 5 (Homo sapiens) (UniProt Q8IW41). As to the kind of experiment: Inhibition of MAPKAPK5 (unknown origin) assessed as remaining activity at 1 uM by Kinome scan method relative to control.
Series [2] has as its target Serine/threonine-protein kinase N1 (Homo sapiens) (UniProt Q16512). The experiment in a line: Inhibition of PKN1 (unknown origin) assessed as remaining activity at 1 uM by Kinome scan method relative to control.
The target in series [3] is Homeodomain-interacting protein kinase 3 (Homo sapiens) (UniProt Q9H422). As to the kind of experiment: Inhibition of human HIPK3 assessed as residual activity at 1 uM using RBER-CHKtide as substrate in presence of 33P-ATP by ProQinase assay relative to control.
The target of series [4] is Dual specificity protein kinase CLK3 (Homo sapiens) (UniProt P49761). As to the kind of experiment: Inhibition of human CLK3 assessed as residual activity at 1 uM using RB-S6P as substrate in presence of 33P-ATP by ProQinase assay relative to control.
Series [5] deals with Lymphokine-activated killer T-cell-originated protein kinase (Homo sapiens) (UniProt Q96KB5). As to the kind of experiment: Inhibition of human PBK assessed as residual activity at 1 uM using histon H1 as substrate in presence of 33P-ATP by ProQinase assay relative to control.
The target of series [6] is G protein-coupled receptor kinase 6 (Homo sapiens) (UniProt P43250). As to the kind of experiment: Inhibition of human GRK6 assessed as residual activity at 1 uM using casein as substrate in presence of 33P-ATP by ProQinase assay relative to control.
Chain of G protein-coupled receptor kinase 6 (Homo sapiens) (P43250 whole entry, looked up): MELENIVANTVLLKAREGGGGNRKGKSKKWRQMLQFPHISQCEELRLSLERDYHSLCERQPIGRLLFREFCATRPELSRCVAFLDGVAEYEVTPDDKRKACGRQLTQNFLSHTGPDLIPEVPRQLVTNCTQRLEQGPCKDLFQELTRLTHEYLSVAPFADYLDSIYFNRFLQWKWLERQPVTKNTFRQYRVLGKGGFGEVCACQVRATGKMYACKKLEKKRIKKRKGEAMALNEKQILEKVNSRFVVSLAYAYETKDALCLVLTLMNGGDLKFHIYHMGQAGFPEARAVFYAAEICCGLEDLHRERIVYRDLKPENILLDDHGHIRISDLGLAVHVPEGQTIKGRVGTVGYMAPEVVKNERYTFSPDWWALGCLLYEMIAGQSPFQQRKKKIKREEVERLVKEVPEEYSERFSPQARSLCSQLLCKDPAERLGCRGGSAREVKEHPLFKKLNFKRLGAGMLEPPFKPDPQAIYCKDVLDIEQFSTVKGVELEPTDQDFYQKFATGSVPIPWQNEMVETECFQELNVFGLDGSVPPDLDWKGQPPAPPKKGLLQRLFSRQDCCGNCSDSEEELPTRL
Series [7] deals with NT-3 growth factor receptor (Homo sapiens) (UniProt Q16288). As to the kind of experiment: Inhibition of human TRKC assessed as residual activity at 1 uM using polyEy as substrate in presence of 33P-ATP by ProQinase assay relative to control.
Chain of NT-3 growth factor receptor (Homo sapiens) (Q16288 32-839 limits assumed): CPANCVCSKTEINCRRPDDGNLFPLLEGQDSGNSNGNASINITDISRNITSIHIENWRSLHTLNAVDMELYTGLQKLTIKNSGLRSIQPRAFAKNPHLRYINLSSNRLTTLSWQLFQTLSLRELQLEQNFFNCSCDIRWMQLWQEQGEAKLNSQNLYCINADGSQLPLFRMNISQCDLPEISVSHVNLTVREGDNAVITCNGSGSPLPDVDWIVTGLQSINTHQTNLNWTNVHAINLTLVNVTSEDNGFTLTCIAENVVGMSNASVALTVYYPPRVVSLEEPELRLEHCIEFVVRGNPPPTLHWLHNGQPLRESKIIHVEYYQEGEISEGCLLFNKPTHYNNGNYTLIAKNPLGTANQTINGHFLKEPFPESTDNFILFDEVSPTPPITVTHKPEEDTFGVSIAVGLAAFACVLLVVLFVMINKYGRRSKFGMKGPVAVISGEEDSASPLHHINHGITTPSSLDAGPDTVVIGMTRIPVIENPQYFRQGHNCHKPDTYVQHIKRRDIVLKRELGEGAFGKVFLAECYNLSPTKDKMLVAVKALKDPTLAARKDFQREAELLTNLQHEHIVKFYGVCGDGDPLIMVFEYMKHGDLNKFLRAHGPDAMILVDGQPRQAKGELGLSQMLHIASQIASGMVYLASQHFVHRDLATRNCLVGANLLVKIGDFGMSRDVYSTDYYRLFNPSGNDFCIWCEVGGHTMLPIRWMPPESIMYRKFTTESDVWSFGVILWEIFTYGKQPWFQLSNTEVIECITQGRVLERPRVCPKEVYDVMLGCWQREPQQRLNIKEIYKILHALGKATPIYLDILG
Series [8] addresses Serine/threonine-protein kinase MRCK beta (Homo sapiens) (UniProt Q9Y5S2). As to the kind of experiment: Inhibition of human CDC42BPB assessed as residual activity at 1 uM using RB-S6P as substrate in presence of 33P-ATP by ProQinase assay relative to control.
In series [9] the target is Insulin receptor (Homo sapiens) (UniProt P06213). As to the kind of experiment: Inhibition of human INSR assessed as residual activity at 1 uM using poly(Ala,Glu,Lys,Tyr)6:2:5:1 as substrate in presence of 33P-ATP by ProQinase assay relative to control.
Chain of Insulin receptor (Homo sapiens) (P06213 28-758 limits assumed): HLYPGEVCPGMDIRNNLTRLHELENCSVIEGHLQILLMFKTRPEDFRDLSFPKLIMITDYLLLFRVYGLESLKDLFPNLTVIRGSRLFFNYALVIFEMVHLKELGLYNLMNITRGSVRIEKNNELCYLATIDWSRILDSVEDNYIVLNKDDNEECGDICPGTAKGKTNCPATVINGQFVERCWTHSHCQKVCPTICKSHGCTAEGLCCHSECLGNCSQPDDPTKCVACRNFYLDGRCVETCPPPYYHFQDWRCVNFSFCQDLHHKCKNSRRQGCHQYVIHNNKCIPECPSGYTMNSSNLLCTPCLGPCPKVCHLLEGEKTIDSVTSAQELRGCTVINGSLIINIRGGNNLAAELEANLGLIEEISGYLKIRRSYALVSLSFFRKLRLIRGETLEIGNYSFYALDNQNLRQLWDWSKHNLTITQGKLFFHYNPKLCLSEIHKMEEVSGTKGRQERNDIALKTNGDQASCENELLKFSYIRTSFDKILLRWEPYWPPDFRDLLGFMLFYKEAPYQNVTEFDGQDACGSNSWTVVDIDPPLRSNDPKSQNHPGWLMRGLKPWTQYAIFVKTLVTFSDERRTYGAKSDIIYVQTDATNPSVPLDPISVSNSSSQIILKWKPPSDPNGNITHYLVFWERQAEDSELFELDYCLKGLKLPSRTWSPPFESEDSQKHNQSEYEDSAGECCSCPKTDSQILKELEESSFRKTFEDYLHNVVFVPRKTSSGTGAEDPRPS
Chain of Insulin receptor (Homo sapiens) (P06213 763-1382 limits assumed): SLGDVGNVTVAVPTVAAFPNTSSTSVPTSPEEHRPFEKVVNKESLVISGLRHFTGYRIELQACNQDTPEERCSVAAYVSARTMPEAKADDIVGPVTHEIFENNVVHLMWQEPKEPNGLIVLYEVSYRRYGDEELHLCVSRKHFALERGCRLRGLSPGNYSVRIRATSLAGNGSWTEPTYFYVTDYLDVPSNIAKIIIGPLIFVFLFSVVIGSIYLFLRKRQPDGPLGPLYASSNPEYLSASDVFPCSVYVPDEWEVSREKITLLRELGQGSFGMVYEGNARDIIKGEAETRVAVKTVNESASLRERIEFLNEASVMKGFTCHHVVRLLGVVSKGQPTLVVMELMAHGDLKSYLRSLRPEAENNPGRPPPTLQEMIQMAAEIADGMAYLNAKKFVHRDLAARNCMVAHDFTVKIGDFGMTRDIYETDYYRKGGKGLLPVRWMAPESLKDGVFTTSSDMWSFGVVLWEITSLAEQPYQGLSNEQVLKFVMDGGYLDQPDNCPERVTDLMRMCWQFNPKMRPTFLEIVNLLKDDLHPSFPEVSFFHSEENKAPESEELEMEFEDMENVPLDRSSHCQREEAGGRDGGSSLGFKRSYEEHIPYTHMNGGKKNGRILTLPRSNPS
Series [10] deals with Serine/threonine-protein kinase pim-3 (Homo sapiens) (UniProt Q86V86). As to the kind of experiment: Inhibition of human PIM3 assessed as residual activity at 1 uM using RBER-GSK3(14-27) as substrate in presence of 33P-ATP by ProQinase assay relative to control.
The target of another series is CYP1A (Homo sapiens, UniProt P04798+P05177). The experiment in a line: Inhibition of CYP1A (unknown origin) at 10 uM relative to control. The format is ADME, protein assay.
Series [11] in a line: Anti-inflammatory activity against human derived high respond PBMC cells assessed as inhibition in stimulated IL-5 cytokine release at 10 uM incubated for 2 hrs in the presence of LPS/SEB/aCD28 by Luminex based sandwich immunoassay relative to control. The format is functional.
In series [12] the test system is Epidermal growth factor receptor (Homo sapiens), P00533 [UNDEFINED MUTATION]. The experiment in a line: Inhibition of EGFR L747-S752del/P753S mutant (unknown origin) assessed as remaining activity at 1 uM by Kinome scan method relative to control.
Series [13] has as its target Protein kinase C iota type (Homo sapiens) (UniProt P41743). The experiment in a line: Inhibition of human PKCiota assessed as residual activity at 1 uM using 3xChocktide-PKC(19-31) as substrate in presence of 33P-ATP by ProQinase assay relative to control.
In series [14] the target is Mitogen-activated protein kinase kinase kinase kinase 5 (Homo sapiens) (UniProt Q9Y4K4). As to the kind of experiment: Inhibition of human MAP4K5 assessed as residual activity at 1 uM using casein as substrate in presence of 33P-ATP by ProQinase assay relative to control.
Series [15] relates to Receptor-type tyrosine-protein kinase FLT3 (Homo sapiens), P36888 [UNDEFINED MUTATION]. As to the kind of experiment: Inhibition of FLT3 ITD mutant (unknown origin) assessed as remaining activity at 1 uM by Kinome scan method relative to control.
The target in series [16] is Mitogen-activated protein kinase 14 (Homo sapiens) (UniProt Q16539). As to the kind of experiment: Inhibition of human p38alpha assessed as residual activity at 1 uM using ATF2 as substrate in presence of 33P-ATP by ProQinase assay relative to control.
Chain of Mitogen-activated protein kinase 14 (Homo sapiens) (Q16539 whole entry): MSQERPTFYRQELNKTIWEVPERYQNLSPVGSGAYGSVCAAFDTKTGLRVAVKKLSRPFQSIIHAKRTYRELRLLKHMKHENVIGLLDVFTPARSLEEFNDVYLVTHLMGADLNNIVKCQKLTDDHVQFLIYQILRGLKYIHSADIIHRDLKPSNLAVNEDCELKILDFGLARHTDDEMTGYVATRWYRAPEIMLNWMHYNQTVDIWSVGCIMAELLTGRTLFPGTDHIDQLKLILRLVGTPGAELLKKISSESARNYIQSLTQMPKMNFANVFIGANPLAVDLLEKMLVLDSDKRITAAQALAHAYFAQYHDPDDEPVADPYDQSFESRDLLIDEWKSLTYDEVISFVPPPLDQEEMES
The target of series [17] is Tyrosine-protein kinase Fgr (Homo sapiens) (UniProt P09769). As to the kind of experiment: Inhibition of FGR (unknown origin) assessed as remaining activity at 1 uM by Kinome scan method relative to control.
Chain of Tyrosine-protein kinase Fgr (Homo sapiens) (P09769 2-529 limits assumed): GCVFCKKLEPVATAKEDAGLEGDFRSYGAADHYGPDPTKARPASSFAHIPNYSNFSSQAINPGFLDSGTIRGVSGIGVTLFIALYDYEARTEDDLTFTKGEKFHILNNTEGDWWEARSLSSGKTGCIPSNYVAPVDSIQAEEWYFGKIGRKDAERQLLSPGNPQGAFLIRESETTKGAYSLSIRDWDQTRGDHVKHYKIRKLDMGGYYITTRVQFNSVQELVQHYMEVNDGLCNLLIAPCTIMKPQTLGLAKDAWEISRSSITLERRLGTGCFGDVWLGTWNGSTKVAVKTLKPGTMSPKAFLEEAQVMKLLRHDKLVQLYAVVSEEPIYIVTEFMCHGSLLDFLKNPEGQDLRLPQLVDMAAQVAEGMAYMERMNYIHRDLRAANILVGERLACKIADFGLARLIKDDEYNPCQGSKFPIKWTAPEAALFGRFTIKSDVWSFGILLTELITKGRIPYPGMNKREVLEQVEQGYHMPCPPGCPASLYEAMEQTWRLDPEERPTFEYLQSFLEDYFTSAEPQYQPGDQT
Series [18] has as its target Serine/threonine-protein kinase Sgk3 (Homo sapiens) (UniProt Q96BR1). As to the kind of experiment: Inhibition of human SGK3 assessed as residual activity at 1 uM using RBER-GSK3(14-27) as substrate in presence of 33P-ATP by ProQinase assay relative to control.
The target of series [19] is T1, Serine/threonine-protein kinase TAO3 (Homo sapiens) (UniProt Q9H2K8).
T1 sequence (whole entry): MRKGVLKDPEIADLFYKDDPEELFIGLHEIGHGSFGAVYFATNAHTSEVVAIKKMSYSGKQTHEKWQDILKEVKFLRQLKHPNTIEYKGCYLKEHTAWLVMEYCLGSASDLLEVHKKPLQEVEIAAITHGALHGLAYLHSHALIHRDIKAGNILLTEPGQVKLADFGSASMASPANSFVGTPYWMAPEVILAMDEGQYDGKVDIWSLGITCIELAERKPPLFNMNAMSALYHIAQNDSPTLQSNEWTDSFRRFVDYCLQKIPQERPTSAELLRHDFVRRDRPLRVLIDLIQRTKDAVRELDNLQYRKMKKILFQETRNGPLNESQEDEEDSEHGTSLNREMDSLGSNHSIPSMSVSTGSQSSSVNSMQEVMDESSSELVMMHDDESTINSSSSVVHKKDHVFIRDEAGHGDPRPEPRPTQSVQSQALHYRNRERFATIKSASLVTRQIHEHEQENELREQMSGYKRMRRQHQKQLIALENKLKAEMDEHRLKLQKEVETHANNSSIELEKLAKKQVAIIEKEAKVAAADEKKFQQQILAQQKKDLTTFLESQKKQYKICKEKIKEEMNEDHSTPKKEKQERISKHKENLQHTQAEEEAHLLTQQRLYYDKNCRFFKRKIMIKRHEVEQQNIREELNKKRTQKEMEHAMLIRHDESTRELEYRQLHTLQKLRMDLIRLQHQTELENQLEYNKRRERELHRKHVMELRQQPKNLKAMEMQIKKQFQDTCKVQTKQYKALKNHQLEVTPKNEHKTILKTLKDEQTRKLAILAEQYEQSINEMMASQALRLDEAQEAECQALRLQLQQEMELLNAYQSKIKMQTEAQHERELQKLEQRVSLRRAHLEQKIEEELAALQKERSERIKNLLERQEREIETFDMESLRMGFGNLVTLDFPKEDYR
The experiment in a line: Inhibition of human TAOK3 assessed as residual activity at 1 uM using 3xChocktide-PKC(19-31) as substrate in presence of 33P-ATP by ProQinase assay relative to control.

Chain of Serine/threonine-protein kinase N1 (Homo sapiens) (Q16512 2-942 limits assumed): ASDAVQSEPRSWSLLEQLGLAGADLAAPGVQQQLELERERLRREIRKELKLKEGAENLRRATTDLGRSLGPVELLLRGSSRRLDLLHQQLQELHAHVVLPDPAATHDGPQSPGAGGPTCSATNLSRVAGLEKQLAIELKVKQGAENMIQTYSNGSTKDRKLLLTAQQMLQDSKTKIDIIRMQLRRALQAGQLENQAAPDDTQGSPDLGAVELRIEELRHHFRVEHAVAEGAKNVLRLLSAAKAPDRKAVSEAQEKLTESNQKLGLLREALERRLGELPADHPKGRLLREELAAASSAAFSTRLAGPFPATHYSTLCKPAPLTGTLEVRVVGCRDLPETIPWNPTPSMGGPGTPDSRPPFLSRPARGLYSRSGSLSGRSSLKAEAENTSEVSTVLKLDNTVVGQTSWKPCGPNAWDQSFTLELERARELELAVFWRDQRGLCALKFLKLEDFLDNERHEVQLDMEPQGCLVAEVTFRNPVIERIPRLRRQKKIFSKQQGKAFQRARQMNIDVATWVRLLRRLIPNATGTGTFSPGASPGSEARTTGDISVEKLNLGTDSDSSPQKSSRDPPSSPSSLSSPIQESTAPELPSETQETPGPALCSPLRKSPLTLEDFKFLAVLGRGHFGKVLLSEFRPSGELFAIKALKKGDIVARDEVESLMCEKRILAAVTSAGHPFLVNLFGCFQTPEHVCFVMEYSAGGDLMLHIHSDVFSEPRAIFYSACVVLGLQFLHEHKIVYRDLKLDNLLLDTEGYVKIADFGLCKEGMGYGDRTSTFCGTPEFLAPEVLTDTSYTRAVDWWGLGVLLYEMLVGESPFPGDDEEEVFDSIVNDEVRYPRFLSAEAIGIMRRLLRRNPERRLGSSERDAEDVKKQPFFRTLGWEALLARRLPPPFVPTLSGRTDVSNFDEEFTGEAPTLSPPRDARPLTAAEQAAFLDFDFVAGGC

`O=C1c2ccc(Nc3ccc(F)cc3F)cc2CCc2ccc(OC[C@H](O)CO)cc21` [Skepinone-L]: the Activity in [1] came to 100%; in series [2], 91%; in [3] it was 91%; in [4], 88%; in series [5], 113%; in series [6], 82%. The Activity in [7] was 120%; in series [8], 83%; in [9], 101%; in series [10] it was 78%; in series [12], 100%; in series [13], 91%. In addition, the Activity in [14] was 84%; in [15] it was 96%; in [16] it was 0%; in [17] it was 100%; in series [18] it was 102%; in series [19], 102%. In addition, the inhibition at 10 µM was -19% on CYP1A and 50% in series [11].
